This passage reports EC50 results from patent US20240207265A1, “TREATMENT OF CNS DISEASES WITH sGC STIMULATORS” (Tisento Therapeutics Inc., priority 2021, published 2024).

Where only a bound is given, the exact number is not on record here.

The target of the assay is T1, human α2β1 sGC isozyme (Homo sapiens, UniProt P33402+Q02153).
T1 construct: host or cells: CHO-K1
T1 sequence (P33402 1-732): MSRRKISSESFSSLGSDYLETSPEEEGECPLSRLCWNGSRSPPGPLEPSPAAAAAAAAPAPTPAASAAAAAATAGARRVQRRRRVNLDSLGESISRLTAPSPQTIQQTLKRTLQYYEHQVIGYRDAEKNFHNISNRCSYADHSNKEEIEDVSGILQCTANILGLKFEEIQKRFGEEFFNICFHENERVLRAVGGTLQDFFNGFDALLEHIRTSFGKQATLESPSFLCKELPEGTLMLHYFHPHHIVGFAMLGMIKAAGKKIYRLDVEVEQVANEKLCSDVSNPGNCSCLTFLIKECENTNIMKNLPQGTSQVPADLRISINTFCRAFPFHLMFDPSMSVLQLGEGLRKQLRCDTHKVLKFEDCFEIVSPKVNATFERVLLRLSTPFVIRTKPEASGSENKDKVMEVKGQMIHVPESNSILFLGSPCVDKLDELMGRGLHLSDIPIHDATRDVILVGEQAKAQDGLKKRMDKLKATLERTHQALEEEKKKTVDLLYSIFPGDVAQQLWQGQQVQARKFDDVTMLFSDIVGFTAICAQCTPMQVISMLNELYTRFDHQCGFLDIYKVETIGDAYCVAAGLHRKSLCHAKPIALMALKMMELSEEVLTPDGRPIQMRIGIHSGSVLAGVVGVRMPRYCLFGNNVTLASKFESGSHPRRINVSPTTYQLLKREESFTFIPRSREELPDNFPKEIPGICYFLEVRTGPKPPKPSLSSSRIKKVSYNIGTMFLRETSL
T1 sequence (Q02153 1-619): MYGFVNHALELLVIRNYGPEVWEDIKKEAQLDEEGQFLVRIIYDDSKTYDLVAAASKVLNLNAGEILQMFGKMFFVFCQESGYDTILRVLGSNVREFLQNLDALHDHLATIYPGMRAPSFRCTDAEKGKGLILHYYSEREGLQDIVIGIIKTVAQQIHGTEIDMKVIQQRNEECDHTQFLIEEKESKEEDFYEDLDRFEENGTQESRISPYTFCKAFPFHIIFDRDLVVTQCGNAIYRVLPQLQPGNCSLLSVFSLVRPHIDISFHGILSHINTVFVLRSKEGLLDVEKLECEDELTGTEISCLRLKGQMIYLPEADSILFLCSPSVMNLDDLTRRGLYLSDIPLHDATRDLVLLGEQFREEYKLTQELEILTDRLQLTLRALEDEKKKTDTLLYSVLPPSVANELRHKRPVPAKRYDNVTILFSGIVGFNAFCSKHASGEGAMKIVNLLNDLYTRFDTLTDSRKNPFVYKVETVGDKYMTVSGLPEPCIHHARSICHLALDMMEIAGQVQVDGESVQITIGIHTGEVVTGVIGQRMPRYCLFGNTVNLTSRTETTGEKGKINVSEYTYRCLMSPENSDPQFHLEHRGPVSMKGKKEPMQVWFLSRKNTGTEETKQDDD
Nature of the assay: cGMP assay in CHO-K1 cells stably expressing human α2β1 sGC isozyme. The class given is cell-based. Conditions: 10 μM DETA-NONOate. The method, then: sGC stimulators were dissolved in DMSO as a 10 mM solution and stored at −20° C. To achieve desired test concentrations, stock concentrations were serially diluted into DMSO and then diluted to the appropriate concentration in assay buffer.
CHO-K1 cells stably transfected with human α2β1 sGC isozyme (generated by GenScript for Ironwood) were cultured in F-12K medium (ATCC catalog #30-2004) with 10% fetal calf serum, 4 μg/mL puromycin (Gibco catalog #A11138-03) and 0.4 mg/mL of geneticin (Gibco catalog #10131-027) in a 95% humidified atmosphere containing 5% CO2 in air at 37° C. For GC activity assays, cells were seeded in 384 well poly-D-lysine coated flat bottom plates (Fisher Scientific #08-774-311) in either 50 μL or 70 μL medium at a density of either 3×10^4 cells/well or 15×10^3, respectively. Cells were incubated for 24 hours at 37° C. in a humidified chamber supplemented with 5% CO2.
For each test concentration, the compound was diluted in 100% DMSO to 100-fold of its final assay concentration. Immediately prior to the assay, the solution was diluted 20-fold into HBSS containing calcium, magnesium, and 50 μM DETA-NONOate (5× the final assay concentration). Medium was removed and cells were washed once with 40 μL of HBSS. Cells were then incubated with 40 μL of a solution containing 0.5 mM IBMX in HBSS for 15 min at 37° C. 10 μL from the sGC stimulator/HBSS/DETA-NONOate plate was added to the cells, which were incubated for an additional 20 min at 37° C. Final DMSO concentration was 1%, final DETA-NONOate concentration was 10 μM; and final compound concentrations were 30,000 nM, 6000 nM, 1200 nM, 240 nM, 48 nM, 9.6 nM, 1.92 nM, 0.384 nM, 0.077 nM, 0.015 nM, or 0.003 nM.
Following incubation with compound, assay buffer was removed and 50 μL of ice-cold 10% acetic acid+150 ng/mL internal standard (+3 cGMP) was added to each well. Samples were incubated on ice for 30-60 min. Following centrifugation at 4° C. for 5 min at 1000×g to pellet cell debris, the supernatant was transferred to a clean plate and the samples analyzed for cGMP content.
Data were analyzed with a 4-parameter fit (log(agonist) vs. response-variable slope) using GraphPad Prism Software v.8. The EC50 was interpolated from the curve fit and is defined as the concentration at which the compound elicits 50% of its maximal response. When the experiment was carried out multiple times for a given compound, the geometrical mean of all experiments is reported.
Compound `Cc1cc(F)c(Cc2nc(-c3ncc(F)c(O)n3)cn3ncnc23)cc1F` [Compound I-19, 5-Fluoro-2-(8-(2,5-difluoro-4-methylbenzyl)-[1,2,4]triazolo[1,5-a]pyrazin-6-yl)pyrimidin-4-ol] registered an EC50 of at most 100 nM.

For `Oc1nc(-c2cn3ncnc3c(Cc3ccccc3F)n2)ncc1F` [Compound I-23], the EC50 fell in the range of 100 to 1000 nM.

For the compound `Oc1nc(-c2cn3ccnc3c(Cc3ccccc3F)n2)ncc1F` [Compound I-21], the EC50 is at most 100 nM.

Compound `Oc1nc(-c2cn3c(F)cnc3c(Cc3cc(F)ccc3F)n2)ncc1F` [Compound I-5] registered an EC50 of at most 100 nM.

`Oc1nc(-c2cn3ccnc3c(Cc3cc(F)ccc3F)n2)ncc1Cl` [Compound I-16, 5-chloro-2-(8-(2,5-difluorobenzyl)imidazo[1,2-a]pyrazin-6-yl)pyrimidin-4-ol] returned an EC50 of at most 100 nM.

The compound `Oc1nc(-c2cn3ccnc3c(Cc3ccccc3)n2)ncc1F` [Compound I-2, 2-(8-Benzylimidazo[1,2-a]pyrazin-6-yl)-5-fluoropyrimidin-4-ol] displayed an EC50 of 100 to 1000 nM.

The compound `Cc1cc(F)c(Cc2nc(-c3ncc(F)c(O)n3)cn3c(F)cnc23)cc1F` [Compound I-18] gave an EC50 of at most 100 nM.

In turn, `Oc1nc(-c2cn3ccnc3c(Cc3cccc(F)c3F)n2)ncc1F` [Compound I-4, 2-(8-(2,3-Difluorobenzyl)imidazo[1,2-a]pyrazin-6-yl)-5-fluoropyrimidin-4-ol] came in with an EC50 of at most 100 nM.

Turning to `Cc1cc(F)c(Cc2nc(-c3nccc(O)n3)cn3ccnc23)cc1F` [Compound I-15, 2-(8-(2,5-difluoro-4-methylbenzyl)imidazo[1,2-a]pyrazin-6-yl)pyrimidin-4-ol], the EC50 lay in the range of 100 to 1000 nM.

The compound `Oc1nc(-c2cn3ccnc3c(Cc3cc(F)ccc3F)n2)ncc1F` [Compound I-20, 5-fluoro-2-(8-(2,5-difluorobenzyl)imidazo[1,2-a]pyrazin-6-yl)pyrimidin-4-ol] returned an EC50 of at most 100 nM.

By EC50 is commonly meant the concentration needed to bring the measured effect to its halfway point. Read a low EC50 as a more potent agent.
